Data from PubChem BioAssay (NCI).
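48-hour exposure; five concentrations; linearly interpolated endpoints. GI50: concentration for 50% inhibition of growth. At the TGI there is no net growth.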

Experiments:
Assay in all cases: growth of human tumour cells (NCI), 48 h
COLO 205 colon = system: COLO 205 colon
SNB-75 CNS = system: SNB-75 CNS
K-562 leukemia = system: K-562 leukemia
SK-MEL-2 melanoma = system: SK-MEL-2 melanoma
RPMI-8226 leukemia = system: RPMI-8226 leukemia
HOP-92 NSCLC = system: HOP-92 NSCLC
TK-10 renal = system: TK-10 renal
OVCAR-3 ovarian = system: OVCAR-3 ovarian
HOP-62 NSCLC = system: HOP-62 NSCLC
MCF7 breast = system: MCF7 breast
A549 NSCLC = system: A549 NSCLC
EKVX NSCLC = system: EKVX NSCLC
HS 578T breast = system: HS 578T breast
HCT-15 colon = system: HCT-15 colon
NCI-H23 lung = system: NCI-H23 lung
UACC-62 melanoma = system: UACC-62 melanoma
SK-MEL-28 melanoma = system: SK-MEL-28 melanoma
HT29 colon = system: HT29 colon
SNB-19 CNS = system: SNB-19 CNS
CCRF-CEM leukemia = system: CCRF-CEM leukemia
M14 melanoma = system: M14 melanoma
CAKI-1 renal = system: CAKI-1 renal
RXF 393 renal = system: RXF 393 renal
786-0 renal = system: 786-0 renal
DU-145 prostate = system: DU-145 prostate
NCI-H460 lung = system: NCI-H460 lung
HL-60(TB) leukemia = system: HL-60(TB) leukemia
SF-295 CNS = system: SF-295 CNS
UO-31 renal = system: UO-31 renal
HCT-116 colon = system: HCT-116 colon
NCI-H522 lung = system: NCI-H522 lung
HCC-2998 colon = system: HCC-2998 colon
PC-3 prostate = system: PC-3 prostate
T-47D breast = system: T-47D breast
U251 CNS = system: U251 CNS
LOX IMVI melanoma = system: LOX IMVI melanoma
OVCAR-5 ovarian = system: OVCAR-5 ovarian
IGROV1 ovarian = system: IGROV1 ovarian
NCI-H226 lung = system: NCI-H226 lung
SF-539 CNS = system: SF-539 CNS
SF-268 CNS = system: SF-268 CNS
A498 renal = system: A498 renal
SK-MEL-5 melanoma = system: SK-MEL-5 melanoma
NCI/ADR-RES ovarian = system: NCI/ADR-RES ovarian
BT-549 breast = system: BT-549 breast
KM12 colon = system: KM12 colon
SN12C renal = system: SN12C renal
SR leukemia = system: SR leukemia
SK-OV-3 ovarian = system: SK-OV-3 ovarian
MDA-MB-231 breast = system: MDA-MB-231 breast
OVCAR-8 ovarian = system: OVCAR-8 ovarian
UACC-257 melanoma = system: UACC-257 melanoma
ACHN renal = system: ACHN renal
MOLT-4 leukemia = system: MOLT-4 leukemia
MALME-3M melanoma = system: MALME-3M melanoma
SW-620 colon = system: SW-620 colon
MDA-MB-435 = system: MDA-MB-435
OVCAR-4 ovarian = system: OVCAR-4 ovarian

With CC(=Nc1ccc(S(N)(=O)=O)cc1)c1c(O)[nH]c2ccccc12 the GI50 (COLO 205 colon) was > 16 µM, the TGI (COLO 205 colon) was > 25 µM and the GI50 (SNB-75 CNS) was > 25 µM. The TGI (SNB-75 CNS) was > 25 µM, the GI50 (K-562 leukemia) was > 25 µM and the TGI (K-562 leukemia) was > 25 µM. The GI50 (SK-MEL-2 melanoma) was > 25 µM, the TGI (SK-MEL-2 melanoma) was > 25 µM and the GI50 (RPMI-8226 leukemia) was > 25 µM. The TGI (RPMI-8226 leukemia) was > 25 µM, the GI50 (HOP-92 NSCLC) was > 25 µM and the TGI (HOP-92 NSCLC) was > 25 µM. For the same compound, the GI50 (TK-10 renal) was > 25 µM, the TGI (TK-10 renal) was > 25 µM and the GI50 (OVCAR-3 ovarian) was > 25 µM. For the same compound, the TGI (OVCAR-3 ovarian) was > 25 µM, the GI50 (HOP-62 NSCLC) was > 14.5 µM and the TGI (HOP-62 NSCLC) was > 25 µM. For the same compound, the GI50 (MCF7 breast) was > 17.5 µM, the TGI (MCF7 breast) was > 25 µM and the GI50 (A549 NSCLC) was > 25 µM. For the same compound, the TGI (A549 NSCLC) was > 25 µM, the GI50 (EKVX NSCLC) was > 25 µM and the TGI (EKVX NSCLC) was > 25 µM. The GI50 (HS 578T breast) was > 25 µM, the TGI (HS 578T breast) was > 25 µM and the GI50 (HCT-15 colon) was > 25 µM. For the same compound, the TGI (HCT-15 colon) was > 25 µM, the GI50 (NCI-H23 lung) was > 25 µM and the TGI (NCI-H23 lung) was > 25 µM. For the same compound, the GI50 (UACC-62 melanoma) was > 25 µM, the TGI (UACC-62 melanoma) was > 25 µM and the GI50 (SK-MEL-28 melanoma) was > 25 µM. The TGI (SK-MEL-28 melanoma) was > 25 µM, the GI50 (HT29 colon) was > 25 µM and the TGI (HT29 colon) was > 25 µM. The GI50 (SNB-19 CNS) was > 25 µM, the TGI (SNB-19 CNS) was > 25 µM and the GI50 (CCRF-CEM leukemia) was > 25 µM. The TGI (CCRF-CEM leukemia) was > 25 µM, the GI50 (M14 melanoma) was > 25 µM and the TGI (M14 melanoma) was > 25 µM. For the same compound, the GI50 (CAKI-1 renal) was 17.1 µM, the TGI (CAKI-1 renal) was > 25 µM and the GI50 (RXF 393 renal) was > 25 µM. For the same compound, the TGI (RXF 393 renal) was > 25 µM, the GI50 (786-0 renal) was > 25 µM and the TGI (786-0 renal) was > 25 µM. For the same compound, the GI50 (DU-145 prostate) was > 25 µM, the TGI (DU-145 prostate) was > 25 µM and the GI50 (NCI-H460 lung) was > 23.9 µM. The TGI (NCI-H460 lung) was > 25 µM, the GI50 (HL-60(TB) leukemia) was > 25 µM and the TGI (HL-60(TB) leukemia) was > 25 µM. For the same compound, the GI50 (SF-295 CNS) was > 25 µM, the TGI (SF-295 CNS) was > 25 µM and the GI50 (UO-31 renal) was 7.37 µM. For the same compound, the TGI (UO-31 renal) was > 25 µM, the GI50 (HCT-116 colon) was > 22.8 µM and the TGI (HCT-116 colon) was > 25 µM. The GI50 (NCI-H522 lung) was > 25 µM, the TGI (NCI-H522 lung) was > 25 µM and the GI50 (HCC-2998 colon) was > 25 µM. The TGI (HCC-2998 colon) was > 25 µM, the GI50 (PC-3 prostate) was > 25 µM and the TGI (PC-3 prostate) was > 25 µM. For the same compound, the GI50 (T-47D breast) was > 8.37 µM, the TGI (T-47D breast) was > 25 µM and the GI50 (U251 CNS) was > 25 µM. For the same compound, the TGI (U251 CNS) was > 25 µM, the GI50 (LOX IMVI melanoma) was > 25 µM and the TGI (LOX IMVI melanoma) was > 25 µM. The GI50 (OVCAR-5 ovarian) was > 25 µM, the TGI (OVCAR-5 ovarian) was > 25 µM and the GI50 (IGROV1 ovarian) was > 25 µM. The TGI (IGROV1 ovarian) was > 25 µM, the GI50 (NCI-H226 lung) was > 23.6 µM and the TGI (NCI-H226 lung) was > 25 µM. For the same compound, the GI50 (SF-539 CNS) was > 25 µM, the TGI (SF-539 CNS) was > 25 µM and the GI50 (SF-268 CNS) was > 25 µM. The TGI (SF-268 CNS) was > 25 µM, the GI50 (A498 renal) was > 25 µM and the TGI (A498 renal) was > 25 µM. For the same compound, the GI50 (SK-MEL-5 melanoma) was > 25 µM, the TGI (SK-MEL-5 melanoma) was > 25 µM and the GI50 (NCI/ADR-RES ovarian) was > 25 µM. For the same compound, the TGI (NCI/ADR-RES ovarian) was > 25 µM, the GI50 (BT-549 breast) was > 25 µM and the TGI (BT-549 breast) was > 25 µM. For the same compound, the GI50 (KM12 colon) was 0.872 µM, the TGI (KM12 colon) was > 25 µM and the GI50 (SN12C renal) was > 25 µM. The TGI (SN12C renal) was > 25 µM, the GI50 (SR leukemia) was > 25 µM and the TGI (SR leukemia) was > 25 µM. For the same compound, the GI50 (SK-OV-3 ovarian) was > 12.2 µM, the TGI (SK-OV-3 ovarian) was > 25 µM and the GI50 (MDA-MB-231 breast) was > 25 µM. For the same compound, the TGI (MDA-MB-231 breast) was > 25 µM, the GI50 (OVCAR-8 ovarian) was > 25 µM and the TGI (OVCAR-8 ovarian) was > 25 µM. For the same compound, the GI50 (UACC-257 melanoma) was > 25 µM, the TGI (UACC-257 melanoma) was > 25 µM and the GI50 (ACHN renal) was > 25 µM. The TGI (ACHN renal) was > 25 µM, the GI50 (MOLT-4 leukemia) was > 25 µM and the TGI (MOLT-4 leukemia) was > 25 µM. The GI50 (MALME-3M melanoma) was > 25 µM, the TGI (MALME-3M melanoma) was > 25 µM and the GI50 (SW-620 colon) was > 18.5 µM. The TGI (SW-620 colon) was > 25 µM, the GI50 (MDA-MB-435) was > 25 µM and the TGI (MDA-MB-435) was > 25 µM. The GI50 (OVCAR-4 ovarian) was > 25 µM and the TGI (OVCAR-4 ovarian) was > 25 µM.
